{
  "source": "patent EP0302626A2",
  "about": "“Insecticidal compounds” (IMPERIAL CHEMICAL INDUSTRIES PLC, priority 1987, dated 1989)",
  "assay_type_in_all_cases": "in vivo",
  "key": {"[1]": {"tested_on": "Tetranychus urticae (spider mites - adult)", "experiment": "insecticidal mortality test, contact, French bean leaf", "settings": "Tetranychus urticae, 72 h, read-out: grading of mortality, Tua, 100 ppm, 3 days", "outline": "(§1)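 Mortality, assessed 1–3 days post-treatment, is graded A 80-100%, B 50-79%, C <50%. Treatment applied to pests, their host plant or food medium, or both. Preparations at 500, 250 or 100 ppm made from acetone solutions diluted with water containing 0.01% wetting agent.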"}, "[2]": {"tested_on": "Myzus persicae (aphids)", "experiment": "insecticidal mortality test, contact, Chinese Cabbage leaf", "settings": "72 h, read-out: grading of mortality, MP", "outline": "as §1"}, "[3]": {"tested_on": "Nilaparvata lugens", "experiment": "insecticidal mortality test, Nephotettix cincticeps replaced by Nilaparvata lugens", "settings": "Nilaparvata lugens, in Oryza sativa, 72 h, read-out: grading of mortality, NC with Nilaparvata lugens", "protocol": "The activity of the Product was determined using a variety of insect pests. The Product was used in the form of liquid preparations containing 500, 250 or 100 parts per million (ppm) by weight of the Product. The preparations were made by dissolving the Product in acetone and diluting the solutions with water containing 0.01% by weight of a wetting agent sold under the trade name \"LlSSAPOL\" NX until the liquid preparations contained the required concentration of the Product. \"Lissapol\" is a Registered Trade Mark.\nThe test procedure adopted with regard to each pest was basically the same and comprised supporting a number of the pests on a medium which was usually a host plant or a foodstuff on which the pests feed, and treating either or both the pests and the medium with the preparations. The mortality of the pests was then assessed at periods usually varying from one to three days after the treatment.\nThe results of the tests are given in Table III for each of the Products, at the rate in parts per million given in the second column as a grading of mortality designated as A, B or C wherein A indicates 80-100% mortality, B indicates 50-79% mortality and C indicates less than 50% mortality.\nIn Table 111 the pest organism used is designated by a letter code and the pests species, the support medium or food, and the type and duration of test is given in Table II."}, "[4]": {"tested_on": "Heliothis virescens (tobacco budworm - larvae)", "experiment": "insecticidal mortality test, residual, cotton leaf", "settings": "72 h, 100 ppm, residual, cotton leaf, 3 days, read-out: grading of mortality, HV", "outline": "as §1"}, "[5]": {"tested_on": "Spodoptera exigua (lesser army worm - larvae)", "experiment": "insecticidal mortality test, residual, cotton leaf", "settings": "72 h, read-out: grading of mortality, SP", "outline": "as §1"}, "[6]": {"tested_on": "Diabrotica balteata (rootworm larvae)", "experiment": "insecticidal mortality test, residual, filter paper/maize seed", "settings": "72 h, read-out: grading of mortality, DB", "outline": "as §1"}, "[7]": {"tested_on": "Blattella germanica (cockroach nymphs)", "experiment": "insecticidal mortality test, residual, plastic pot", "settings": "72 h, read-out: grading of mortality, BG", "outline": "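Mortality grades: A 80–100%, B 50–79%, C <50%, scored usually 1 to 3 days post-treatment. Test liquids held 500, 250 or 100 ppm by weight, prepared from acetone solution diluted into water with 0.01% wetting agent.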"}, "[8]": {"tested_on": "Musca domestica (houseflies - adults)", "experiment": "insecticidal mortality test, contact, cotton wool/sugar", "settings": "24 h, read-out: grading of mortality, MD", "outline": "as §1"}, "[9]": {"tested_on": "Blattella germanica (adult males)", "experiment": "Blattella germanica knockdown test", "settings": "Blattella germanica, tests 1 and 2 are repeats", "outline": "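Adult male German cockroaches, 10 per pot, sprayed in a Potter tower with 250 ppm compound in acetone/kerosene. Knockdown scored every 5 min to 20 min (sometimes 1–4 min, giving KT50/KT90); mortality after 48 h at 25°C, 65% RH; tests repeated.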"}, "[10]": {"tested_on": "Musca domestica (adult females)", "experiment": "Musca domestica knockdown test", "settings": "1 cm3 of 30 ppm solution in acetone, Kearns and March chamber, 20 adult females, observed over 10 minutes; average of 2 replicates (* single replicate, ** average of 7 tests)", "protocol": "1 cm³ Of a 30 ppm solution of the test chemical in acetone was sprayed into a Kearns and March chamber containing 20 Musca domestica (adult females). Knockdown was observed over a period of 10 minutes and KT₅₀ and KT₉₀ values (the time taken for 50% and 90% of the insects to be knocked down) were calculated from the observations. The results given in Table V represent average KT values of 2 replicates except where otherwise stated."}},
  "data": [
    {"smiles": "C#Cc1c(F)c(F)c(COC(=O)C2C(C=C(Cl)C(F)(F)F)C2(C)C)c(F)c1F", "note": "(racemic) [Product XVI, 4-Ethynyl-2,3,5,6-tetrafluorobenzyl (1RS, cis)-3-(Z-2-chloro-3,3,3-trifluoroprop-1-en-1-yl)-2,2-dimethylcyclopropanecarboxylate]", "values": [
      {"measurement": "mortality at 100 ppm", "setting": "[1]", "result": "50 to 79", "unit": "%"},
      {"measurement": "mortality at 100 ppm", "setting": "[2]", "result": "80 to 100", "unit": "%"},
      {"measurement": "mortality at 100 ppm", "setting": "[3]", "result": "80 to 100", "unit": "%"},
      {"measurement": "mortality at 100 ppm", "setting": "[4]", "result": "80 to 100", "unit": "%"},
      {"measurement": "mortality at 100 ppm", "setting": "[5]", "result": "80 to 100", "unit": "%"},
      {"measurement": "mortality at 100 ppm", "setting": "[6]", "result": "80 to 100", "unit": "%"},
      {"measurement": "mortality at 100 ppm", "setting": "[7]", "result": "80 to 100", "unit": "%"},
      {"measurement": "mortality at 100 ppm", "setting": "[8]", "result": "80 to 100", "unit": "%"},
      {"measurement": "mortality at 250 ppm", "setting": "[9]; 48 h, 250 ppm spray, insects held at 25°C and 65% relative humidity for 48 hours, read-out: % MORTALITY 48 hrs", "result": 100, "unit": "%"},
      {"measurement": "pest or weed control at 250 ppm", "setting": "[9]; topical, 10 min, 250 ppm in kerosene, 1 cm3 sprayed onto 10 adult males, 10 min, Tetramethrin: mean of 27 observations, read-out: % KNOCKDOWN OBSERVED 10 min", "result": 100, "unit": "%"},
      {"measurement": "KT₅₀", "setting": "[10]", "result": "4.6* mins"},
      {"measurement": "KT₉₀", "setting": "[10]", "result": "7.0* mins"}
    ]}
  ]
}
